From US7138530B2, “Thiophene amidines, compositions thereof, and methods of treating complement-mediated diseases and conditions” (3-Dimensional Pharmaceuticals, Inc., priority 2002, dated 2006)

target: T1, activated human C1s (Homo sapiens, UniProt P09871); experiment: In vitro inhibition of C1s: Ki determination, C1s-catalyzed hydrolysis of Z-Gly-Arg-S-Bzl detected with DTNB; type: biochemical; settings: purified activated human C1s 2.3 nM, Z-Gly-Arg-S-Bzl 45 μM, DTNB 200 μM, pH 7.5, 37° C., absorbance at 405 nm
T1 construct: purchased Calbiochem (La Jolla, Calif.)
T1 sequence (P09871 438-688 limits assumed): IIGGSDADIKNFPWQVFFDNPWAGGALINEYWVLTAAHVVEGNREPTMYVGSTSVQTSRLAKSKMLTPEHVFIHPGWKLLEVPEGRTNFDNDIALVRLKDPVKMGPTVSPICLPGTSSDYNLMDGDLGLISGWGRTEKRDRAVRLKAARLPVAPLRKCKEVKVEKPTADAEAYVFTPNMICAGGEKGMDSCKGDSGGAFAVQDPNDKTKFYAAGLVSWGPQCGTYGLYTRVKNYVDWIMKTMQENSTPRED
T1 sequence (P09871 16-437 partner limits assumed): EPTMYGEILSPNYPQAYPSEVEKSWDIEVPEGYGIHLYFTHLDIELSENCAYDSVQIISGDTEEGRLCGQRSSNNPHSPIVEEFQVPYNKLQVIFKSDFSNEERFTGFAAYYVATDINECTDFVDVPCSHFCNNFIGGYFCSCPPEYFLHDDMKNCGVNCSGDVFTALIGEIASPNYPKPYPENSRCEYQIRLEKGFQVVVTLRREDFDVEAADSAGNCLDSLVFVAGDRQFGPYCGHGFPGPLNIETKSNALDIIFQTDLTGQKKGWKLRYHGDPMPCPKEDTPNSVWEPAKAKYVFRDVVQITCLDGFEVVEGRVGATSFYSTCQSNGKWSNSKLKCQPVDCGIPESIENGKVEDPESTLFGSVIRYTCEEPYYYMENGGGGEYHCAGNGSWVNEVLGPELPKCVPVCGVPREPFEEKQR
Description: Reagents: All buffer salts were obtained from Sigma Chemical Company (St. Louis, Mo.), and were of the highest purity available. DTNB was purchased from Pierce (Rockford, Ill.). Z-Gly-Arg-S-Bzl was purchased from Enzyme Systems Products (Livermore, Calif.). Activated human C1s was purchased from Calbiochem (La Jolla, Calif.).
Test compounds are prepared as a 10 μM solution in DMSO. Dilutions are prepared in DMSO yielding 7 final concentrations encompassing a 700-fold concentration range.
Reactions were initiated by the addition of a 10 μL aliquot of the enzyme, and the absorbance increase at 405 nm is continuously recorded for 15 minutes in a Molecular Devices plate reader. Final DMSO concentration was 4.3%. […] The ratio of the velocity (rate of change in absorbance as a function of time) for a sample containing no test compound is divided by the velocity of a sample containing test compound, and is plotted as a function of test compound concentration. The data are fit to a linear regression, and the value of the slope of the line calculated. The inverse of the slope is the experimentally determined Ki value.

SMILES	Ki [µM]
CSc1sc(C(=N)N)cc1S(=O)(=O)c1cccc(-c2ccsc2)c1 [Example 77, 5-Methylsulfanyl-4-(3-thiophen-3-yl-benzenesulfonyl)-thiophene-2-carboxamidine]	0.006 to 0.023
CSc1sc(C(=N)NC(=O)OC(C)(C)C)cc1S(=O)(=O)c1cccc(-c2ccc(S(C)(=O)=O)cc2)c1 [Example 57, {Imino-[4-(4′-methanesulfonyl-biphenyl-3-sulfonyl)-5-methylsulfanyl-thiophen-2-yl]-methyl}-carbamic acid tert-butyl ester]	0.006 to 0.023
CSc1sc(C(=N)N)cc1S(=O)(=O)c1cccc(-c2c(C)cc(NC(=N)N)cc2NC(=O)NCCCCCC(=O)O)c1 [Example 259]	0.006 to 0.023
